Common to all, as to assay: inhibition of tumour cell growth, NCI panel, 48 h
Assay [1] deals with OVCAR-8 ovarian.
Assay [2] has as its system TK-10 renal.
The test system of assay [3] is RXF 393 renal.
The subject of assay [4] is 786-0 renal.
For assay [5], the system named is A498 renal.
Assay [6] relates to HCT-15 colon.
Assay [7] relates to IGROV1 ovarian.
Assay [8] relates to MDA-MB-231 breast.
For assay [9], the system named is SK-MEL-28 melanoma.
Assay [10] concerns OVCAR-4 ovarian.

For nine compounds, GI50 and TGI results are on record in PubChem BioAssay (NCI).

Structures are written as SMILES.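 Assay format: 96-well plates, 48-hour exposure. At the GI50, growth is halved. TGI: total growth inhibition.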

Take `CCc1c(C#N)c(S[C@@H](C(N)=O)c2ccccc2)nc(N(C)C)c1C#N`: the GI50 in assay [1] was 3.96 µM; in assay [2] it was 21.9 µM; in assay [3] it was 4.51 µM; in [4], 21.1 µM; in assay [5], 1.3 µM; in assay [6], more than 100 µM. The results for the GI50 in [7] and in assay [8] were 7.14 µM and 10.8 µM, respectively. For the same compound, the TGI in assay [1] was more than 100 µM; in assay [2], 80.4 µM; in assay [3], 51.9 µM; in assay [4] it was more than 100 µM; in [5], 9.47 µM; in [6] it was more than 100 µM. The TGI in assay [7] and in assay [8] was more than 100 µM throughout.
In the case of `COc1ccc(/C=C/C(=O)c2ccc(SC)cc2)cc1OC`, the GI50 in assay [1] was 16.5 µM; in [2] it was 14.7 µM; in assay [3], 12.7 µM; in [9], 18.2 µM; in [4] it was 12.5 µM; in assay [6], 3.1 µM. In addition, the GI50 in assay [7] was 4.73 µM; in assay [8], 9.05 µM; in assay [10], 40.5 µM. Also, the TGI in assay [1] was determined as 44 µM; in [2] it was 32.8 µM; in assay [3], 29.4 µM; in [9], 39.8 µM; in assay [4], 26.6 µM; in assay [6], 13.3 µM. Also, the TGI in assay [7] was 25.2 µM; in assay [8] it was 33.7 µM; in assay [10], more than 100 µM.
In the case of `O=c1nc2n(-c3ccc(Cl)cc3)c3ccc([N+](=O)[O-])cc3cc-2c(=O)[nH]1`, the GI50 in [1] was 33.2 µM; in assay [2], 25.7 µM; in [3], 18.8 µM; in [9] it was 24.9 µM; in assay [4] it was 17.9 µM; in assay [5], 33.2 µM. Besides, the results for the GI50 in [6], in assay [8] and in [10] were 8.84 µM, 17.3 µM and 71.5 µM, respectively. For the same compound, the TGI in assay [1] is more than 100 µM; in assay [2], 62.7 µM; in assay [3], more than 100 µM; in [9], 61.6 µM; in assay [4], 37.1 µM; in [5], more than 100 µM. For the same compound, the figures for the TGI in assay [6], in [8] and in assay [10] were more than 100 µM, 44.5 µM and more than 100 µM, respectively.
As for `O=NNc1ccc(S(=O)(=O)c2ccccc2)cn1`, the TGI in assay [1], in [2], in [9], in [4], in assay [5] and in assay [6] was more than 100 µM each time. The TGI in [7], in assay [8] and in [10] was more than 100 µM each time.
As to `Cc1ccc(-n2c3c(c4c(CN(C)C)c(O)ccc42)CCc2ccccc2C3=O)cc1`, the GI50 in assay [1] was 16.9 µM; in assay [2], 18.9 µM; in assay [3], 13.6 µM; in assay [4], 16.9 µM; in assay [5] it was 15.1 µM; in assay [6] it was 18.3 µM. Further, the GI50 was 10.8 µM in assay [7] and 14.9 µM in [8]. Besides, the TGI in assay [1] was found to be 41.8 µM; in assay [2], 35.6 µM; in assay [3], 28 µM; in [4], 33.3 µM; in assay [5] it was 49.1 µM; in assay [6] it was 35.8 µM. The figures for the TGI in [7] and in assay [8] were 25.8 µM and 31 µM, respectively.
On to `c1ccc2[nH]c(-c3ccc(NN=Nc4ccncc4)cc3)nc2c1`, for which the GI50 in assay [1] is 5.57 µM; in assay [2] it was 52.5 µM; in [3] it was 58.1 µM; in assay [9] it was 16.6 µM; in assay [4], 99.9 µM; in assay [6] it was 17.7 µM. Moreover, the GI50 in assay [7] was more than 100 µM; in assay [8], more than 100 µM; in assay [10], 39.5 µM. Also, the TGI was more than 100 µM in assay [1]; more than 100 µM in assay [2]; more than 100 µM in [3]; 51.6 µM in [9]; more than 100 µM in assay [4]; more than 100 µM in [6]. In addition, the TGI in [7], in assay [8] and in assay [10] was more than 100 µM in each case.
With `O=C1CCCCCCCC/C=C\CC(c2ccco2)O1` (stereo not drawn), the GI50 is 33.4 µM in [1]; more than 100 µM in assay [2]; 21.5 µM in assay [3]; 31.1 µM in assay [9]; 21.4 µM in [4]; 23.5 µM in assay [6]. In addition, the values for the GI50 in [7] and in [8] were 28.1 µM and 14.6 µM, respectively. In addition, the TGI is more than 100 µM in [1]; more than 100 µM in assay [2]; 65.2 µM in assay [3]; more than 100 µM in [9]; 70.3 µM in [4]; 77.9 µM in [6]. For the same compound, the TGI is more than 100 µM in [7] and 41.9 µM in assay [8].
In the case of `CCOc1ccc(-c2nonc2NC(=O)c2cccc(C)c2)cc1OCC`, the GI50 was more than 100 µM in assay [1]; 22.7 µM in [2]; more than 100 µM in assay [3]; more than 100 µM in assay [9]; 49.7 µM in [4]; more than 100 µM in [6]. Besides, the GI50 in assay [7] is 67 µM; in assay [8] it was 19.5 µM; in assay [10], more than 100 µM. Also, the TGI in assay [1] is more than 100 µM; in assay [2] it was 46.8 µM; in assay [3], more than 100 µM; in assay [9], more than 100 µM; in [4], more than 100 µM; in assay [6], more than 100 µM. The TGI in assay [7] is more than 100 µM; in [8] it was 62.5 µM; in assay [10], more than 100 µM.
Regarding `CCCCCC/C=C1\CCC(CN2CCCC2)C1=O` (stereo not drawn), the TGI amounted to 39.2 µM in [1]; 17.4 µM in assay [2]; 33.5 µM in assay [3]; 33.8 µM in assay [9]; 6.43 µM in assay [4]; 38.4 µM in assay [5]. Further, the TGI in [6] came to 22.8 µM; in assay [7] it was 39.6 µM; in assay [10], 49.1 µM.
